Measured values as given in patent EP3570868B1, “[…] ANTIMICROBIAL PEPTIDES AND THEIR APPLICATIONS FOR THE TREATMENT AND PREVENTION OF MUSCU[…]” (Ustav Organicke Chemie a Biochemie AV CR, v.v.i., priority 2017, dated 2018).
Square brackets hold non-standard residues; d marks the D form. Peptide text beside a SMILES is read from it. βAla = NCCC(=O)O

Key:
Bacillus subtilis = format: cell-based; settings: B.s.; 37° C for 20 h
Procedure: (§1) Gram-positive bacteria (Bacillus subtilis, Staphylococcus aureus, Staphylococcus epidermidis and Enterococcus faecalis), Gram-negative bacteria (Escherichia coli and Pseudomonas aeruginosa) and the yeast (Candida albicans) were grown to exponential phase and then were diluted with fresh medium. BHI medium (Oxoid, Great Britain) was used for Enterococcus faecalis; YPD medium containing yeast extract, peptone and glucose was used for Candida albicans and LB medium (Sigma, Czech Republic) was used for the remaining microorganisms. Then the microorganisms were added to the solutions of the tested antimicrobial peptides in LB medium in multi-well plates, so that the final peptide concentration it the wells was in the range of 0.5 to 100 µmοl.1^-1. The plates were incubated at 37° C for 20 h while being continuously shaken in a Bioscreen C (Oy Growth Curves AB Ltd., Helsinki, Finland). Absorbance was measured at 540 nm every 15 min. Antimicrobial activity (Table 2) was determined as a quantitative minimum inhibitory concentration (MIC) by observing bacterial growth in the presence of different concentrations of tested peptides. In the experiments, ca 10^5 CFU of bacteria or candida per well were used. Tetracycline in a concentration range of 0.5 - 100 µmol.1^-1 was used as a standard.
(§2) Clinical isolates of bacteria were obtained from University Hospital in Motol, Prague, Czech Republic and from Liberec Regional Hospital, Czech Republic. Methicillin resistant Staphylococcus aureus (MRSA) 6271 and Pseudomonas aeruginosa 5482 were from the Czech National Collection of Type Cultures, the National Institute of Public Health, Prague, Czech Republic. Other bacteria were from the Czech Collection of Microorganisms, Brno, Czech Republic. Candida albicans came from the Faculty of Medicine, Palacky University, Olomouc, Czech Republic. Candida tropicalis ATCC 750 and Candida glabrata DSY 565 were obtained from the Institute of Physiology, Academy of Sciences of the Czech Republic.

Escherichia coli = format: cell-based; settings: E.c.; 37° C for 20 h
Procedure: as §1, §2

Candida albicans = format: cell-based; settings: C.a.; 37° C for 20 h
Procedure: as §1, §2

[1] = test system: E.f. (clin. isolate Motol); format: cell-based, Enterococcus faecalis; settings: 37° C for 20 h
Procedure: as §1, §2

[2] = test system: S.e. (clin. isolate Motol); format: cell-based, Staphylococcus epidermidis; settings: 37° C for 20 h
Procedure: as §1, §2

P. aeruginosa 5482 [3] = assay: Induced osteomyelitis model in femur heads: effect of peptides released from carrier on infection in the bone graft; format: cell-based; settings: ChronOS (200 mg); V (9 mg); two days; carrier without peptide 1,0x10^9
Procedure: (§3) 3-4 holes of a diameter of 5 mm and a depth of 10 mm are drilled with a surgical spoon into a femur head under sterile conditions (spongy part of the bone in the resection site). Thereafter, this bone graft is put into a beaker of appropriate size and lined with sterile gauze squares. The gauze is moistened with sterile physiological saline to prevent drying of the bone. Then, suspension of multiplied microbes in an appropriate medium (50-100 µl) at a concentration of 10^7 to 10^9 CFU is sequentially applied to the prepared holes in the bone graft and allowed to incubate for 1-2 days. […] Beaker with the infected bone graft is covered with a sterile Petri dish. During the experiment, induced osteomyelitis models are kept protected from light at room temperature.
(§4) After the incubation, the infected holes in the bone are filled with a mixture of the local carrier, and a peptide selected from the series of peptides of formulae I to XIII or their specific enantiomers (Figure 1). For comparison, one of the holes is filled with the local carrier without peptide, or the carrier filled with antibiotic (vancomycin or gentamicin). A commercially available two-component material supplied by Synthes (Synthes GmbH, Switzerland) under the name ChronOS Inject was used as the carrier. Its solid component comprises a mixture of calcium phosphates CaHPO4.2H2O and Ca3(PO4)2 and additives, the liquid component is 0.5% (vol./vol.) solution of hyaluronic acid.
(§5) After two days, the filling is thoroughly removed with a surgical spoon and empty holes are wiped with moistened sterile cotton swab, which is then extracted into 400 µl physiological saline. The extract is diluted in a tenfold serial dilution and each diluted suspension is cultured on agar in Petri dishes; the culture is evaluated on the following day. […] The result of the peptide effect is also compared with the result of the effect of antibiotics. In some cases, microbiological examination of the bone tissue taken with a surgical spoon from a deeper area of the drilled holes is performed. […] Table 3. Evaluation of the effect of antimicrobial peptides released from the carrier on an infection in the bone graft. Effect of antimicrobial activity is expressed in the number of CFU (colony-forming units) in the infected hole after swabbing.

[4] = test system: MRSA (clin. isolate Liberec); format: cell-based, Staphylococcus aureus; settings: 37° C for 20 h
Procedure: as §1, §2

MRSA 6271 [5] = format: cell-based, Staphylococcus aureus; settings: 37° C for 20 h
Procedure: as §1, §2

[6] = test system: MRSA (clin. isolate Motol); format: cell-based, Staphylococcus aureus; settings: 37° C for 20 h
Procedure: as §1, §2

[7] = test system: MRSA (clin. isolate Motol); assay: Induced osteomyelitis model in femur heads: effect of peptides released from carrier on infection in the bone graft; format: cell-based, Staphylococcus aureus; settings: ChronOS (200 mg); 10 mg; two days; carrier without peptide 4,8x10^6
Procedure: as §3, §4, §5

human red blood cells = assay: Determination of haemolytic activity; format: cell-based; settings: human red blood cells (5% v/v), 1 h at 37 °C; concentration for lysis of 50% of erythrocytes
Procedure: The peptides in the concentrations 2-400 µmol.1^-1 were incubated with the suspension of human red blood cells (5% v/v) for 1 h at 37 °C in a physiological solution at a final volume of 0.2 ml. The samples were then centrifuged for 5 min at 250 g. The absorbance of the supernatant was determined at 540 nm. 0.2% (v/v) TRITON X100 was used as a control for 100% haemolysis. Haemolytic activity is expressed as the peptide concentration required for lysis of 50% of human erythrocytes in the assay (LC50). Table 2. Antimicrobial and haemolytic activity of I up to XIII peptides and tetracycline.

[8] = test system: P.a. (clin. isolate Liberec); format: cell-based, Pseudomonas aeruginosa; settings: 37° C for 20 h
Procedure: as §1, §2

P.a. 5482 = format: cell-based, Pseudomonas aeruginosa; settings: 37° C for 20 h
Procedure: as §1, §2

[9] = test system: MRSA (clin. isolate Motol); assay: Biofilm formation on the surface of a bone cement implant in femur heads; format: cell-based, Staphylococcus aureus; settings: two days, cement without peptide 2,6x10^6
Procedure: (§6) The resulting elastic paste is placed into a 2 ml plastic syringe (without needle) and pressed into the infected holes in the spongy part of the bone, where it polymerizes and hardens. For comparison, other similarly infected holes are filled with cement containing only an antibiotic or antimycotic agent. For comparison, a Vancogenx® cement (Tecresa S. p. A., Italy) is used, made from a mixture of a powdered polymer component containing vancomycin and gentamicin. The mixture in an amount of 125 mg is mixed with liquid monomer (50-60 µl) and then pressed into the openings as described above. In another embodiment, the cements are applied to uninfected holes, allowed to harden, and then microbes are pipetted into the hole excavated between implants. From there they penetrate through bone tissue and settle on the implants with consequent formation of biofilms.
(§7) After two days, implants are removed with metal spikes and tweezers, mechanically cleaned from debris of bone tissue, and washed four times with physiological saline (0.5 ml) in plastic tubes to remove any residual planktonic microbes or bone cells from their surface. The implants in closed tubes with 0.4 ml saline are then sonicated four times for 3 min with occasional shaking. The of microbial biofilm on the surface of the implant is thus disrupted and microbes are loosed into the physiological saline. […]

P. aeruginosa 5482 [10] = assay: as above; format: cell-based; settings: two days, cement without peptide 6x10^5
Procedure: (§8) The resulting elastic paste is placed into a 2 ml plastic syringe (without needle) and pressed into the infected holes in the spongy part of the bone, where it polymerizes and hardens. For comparison, other similarly infected holes are filled with cement containing only an antibiotic or antimycotic agent. […] The mixture in an amount of 125 mg is mixed with liquid monomer (50-60 µl) and then pressed into the openings as described above. In another embodiment, the cements are applied to uninfected holes, allowed to harden, and then microbes are pipetted into the hole excavated between implants. From there they penetrate through bone tissue and settle on the implants with consequent formation of biofilms.
(§9) After two days, implants are removed with metal spikes and tweezers, mechanically cleaned from debris of bone tissue, and washed four times with physiological saline (0.5 ml) in plastic tubes to remove any residual planktonic microbes or bone cells from their surface. The implants in closed tubes with 0.4 ml saline are then sonicated four times for 3 min with occasional shaking. The of microbial biofilm on the surface of the implant is thus disrupted and microbes are loosed into the physiological saline. The resulting suspension is subsequently diluted using the tenfold serial dilution for culturing on agar. […]

[11] = test system: Candida albicans (clin. isolate Olomouc); assay: as above; format: cell-based; settings: two days, cement without peptide 6.0x10^3
Procedure: as §6
(§10) After two days, implants are removed with metal spikes and tweezers, mechanically cleaned from debris of bone tissue, and washed four times with physiological saline (0.5 ml) in plastic tubes to remove any residual planktonic microbes or bone cells from their surface. The implants in closed tubes with 0.4 ml saline are then sonicated four times for 3 min with occasional shaking. The of microbial biofilm on the surface of the implant is thus disrupted and microbes are loosed into the physiological saline. The resulting suspension is subsequently diluted using the tenfold serial dilution for culturing on agar.
(§11) Evaluation of the effect of antimicrobial peptides on the formation of microbial biofilm on the surface of the implant made of the bone cement.

[12] = test system: S. aureus (clin. isolate Liberec); assay: Induced osteomyelitis model in femur heads: effect of peptides released from carrier on infection in the bone graft; format: cell-based; settings: ChronOS (200 mg); 10 mg, separate holes; two days; carrier without peptide 3,9x10^6
Procedure: as §3, §4, §5

[13] = test system: S. epidermidis (clin. isolate Motol); assay: Biofilm formation on the surface of a bone cement implant in femur heads; format: cell-based; settings: two days, cement without peptide 4.0x10^6
Procedure: as §8, §9

[14] = test system: MRSA (clin. isolate Liberec); assay: Induced osteomyelitis model in femur heads: effect of peptides released from carrier on infection in the bone graft; format: cell-based, Staphylococcus aureus; settings: ChronOS (200 mg); 10 mg, separate holes; two days; carrier without peptide 3,4x10^7
Procedure: as §3, §4, §5

[15] = test system: MRSA (clin. isolate Liberec); assay: Biofilm formation on the surface of a bone cement implant in femur heads; format: cell-based, Staphylococcus aureus; settings: two days, cement without peptide 8,8x10^3
Procedure: as §6, §7

MRSA 6271 [16] = assay: as above; format: cell-based, Staphylococcus aureus; settings: two days, cement without peptide 1.1x10^6
Procedure: as §6, §10, §11

[17] = test system: Staphylococcus aureus (MRSA 6271); assay: Eradication of the infection inside the spongy bone tissue (bone grafts, peptide in carrier); format: cell-based; settings: carrier (200 mg) with peptide VIII (10 mg), two days
Procedure: Experiments was carried out similarly as described above using two graft bones. The suspension of Staphylococcus aureus (MRSA 6271) in LB medium (50 - 100 µl) in the concentration 10^9 CFU/ml was pipetted into two holes drilled in each bone graft. On the next day the one hole in one bone graft was filled with the carrier (200 mg) blended with peptide VIII (10 mg). The second hole was filled with carrier alone (200 mg). In the second bone graft the two holes were filled identically.
The experiments were evaluated after two days of the treatment by the comparison of the number of bacterial colonies (CFU/ml) related to the infected hole in which the peptide was released from the carrier and acted against the infection, against the number of the colonies related to the infected hole which was filled only with the carrier alone. The results of these two independent experiments which are summarized in Table 5 clearly show high efficacy of the peptide VIII. Table 5. Effect of peptide VIII on the eradication of the infection inside the spongy bone tissue Carried out in two independent experiments.

[18] = test system: S. epidermidis (clin. isolate Motol); assay: Induced osteomyelitis model in femur heads: effect of peptides released from carrier on infection in the bone graft; format: cell-based; settings: ChronOS (300 mg); 10 mg, separate holes; two days; carrier without peptide 1,2x10^5
Procedure: as §3, §4, §5

SMILES	Antimicrobial activity MIC (Bacillus subtilis)	Antimicrobial activity MIC (Escherichia coli)	Antimicrobial activity MIC (Candida albicans)	Antimicrobial activity MIC [1]	Antimicrobial activity MIC [2]	Antimicrobial activity MIC [4]	Antimicrobial activity MIC (MRSA 6271 [5])	Antimicrobial activity MIC [6]	Hemolytic activity LC50 (human red blood cells) [µM]	Antimicrobial activity MIC [8]	Antimicrobial activity MIC (P.a. 5482)	CFU/hole [12]	other results
CC[C@H](C)[C@H](NC(=O)[C@H](CCCCN)NC(=O)[C@H](CCCCN)NC(=O)[C@H](CC(C)C)NC(=O)[C@H](CC(C)C)NC(=O)[C@H](CCCCN)NC(=O)[C@H](CCSC)NC(=O)[C@H](Cc1c[nH]c2ccccc12)NC(=O)[C@H](CCCCN)NC(=O)CCN)C(=O)N[C@@H](CC(C)C)C(=O)N[C@@H](CCCCN)C(N)=O [Peptide V] (H-[βAla]KWMKLLKKILK-NH2)	1,8 µmol.l^-1	6,8 µmol.l^-1	11,3 µmol.l^-1	59,0 µmol.l^-1	2,8 µmol.l^-1	5,7 µmol.l^-1	11,3 µmol.l^-1	10,0 µmol.l^-1	270	7,0 µmol.l^-1	2,8 µmol.l^-1		CFU/hole (P. aeruginosa 5482 [3]): 2,0x10^5 CFU/hole; CFU/hole [7]: 4,0 CFU/hole
CC[C@H](C)[C@H](NC(=O)[C@H](CCCCN)NC(=O)[C@H](CCCCN)NC(=O)[C@H](CC(C)C)NC(=O)[C@H](CC(C)C)NC(=O)[C@H](CCCCN)NC(=O)[C@H](CCSC)NC(=O)[C@H](Cc1c[nH]c2ccccc12)NC(=O)[C@@H](N)CCCCN)C(=O)N[C@@H](CC(C)C)C(=O)N[C@@H](CCCCN)C(N)=O [I] (H-KWMKLLKKILK-NH2)	2,3 µmol.l^-1	12,7 µmol.l^-1	9,5 µmol.l^-1	>100 µmol/L	3,2 µmol.l^-1	8,0 µmol.l^-1	13,5 µmol.l^-1	17,7 µmol.l^-1	>400	5,8 µmol.l^-1	2,9 µmol.l^-1	1,3x10^4 CFU/hole	CFU/implant [9]: 0 CFU/implant; CFU/implant (P. aeruginosa 5482 [10]): 7.0x10^2 CFU/implant; CFU/implant [11]: 6.8x10^1 CFU/implant; CFU/implant [13]: 1,1x10^3 CFU/implant; CFU/hole [14]: 2,3x10^5 / 2,3x10^5 CFU/hole; CFU/implant [15]: 0 CFU/implant; CFU/implant (MRSA 6271 [16]): 0 CFU/implant
CC[C@H](C)[C@H](NC(=O)[C@H](CCCCN)NC(=O)[C@H](CCCCN)NC(=O)[C@H](CC(C)C)NC(=O)[C@H](CC(C)C)NC(=O)[C@H](CCCCN)NC(=O)[C@@H](NC(=O)[C@H](Cc1c[nH]c2ccccc12)NC(=O)[C@H](CCCCN)NC(=O)CN)C(C)C)C(=O)N[C@@H](CC(C)C)C(=O)N[C@@H](CCCCN)C(N)=O [Peptide VIII] (H-GKWVKLLKKILK-NH2)	2,0 µmol.l^-1	6,3 µmol.l^-1	6,3 µmol.l^-1	>100 µmol/L	2,5 µmol.l^-1	5,0 µmol.l^-1	9,0 µmol.l^-1	10,0 µmol.l^-1	>400	12,7 µmol.l^-1	3,0 µmol.l^-1	0 CFU/hole	CFU/hole ([17]; first experiment, no peptide 1.2x10^7): 0 CFU/ hole; CFU/hole ([17]; second experiment, no peptide 3.6x10^6): 4.8x10^2 CFU/ hole; CFU/hole [18]: 0 in all cases CFU/hole
